Where a SMILES comes first, the peptide text is derived from it. [ ]: non-standard residue; d: D form. The star is where a group is joined. X2 = NC(=O)COCC(=O)NCCCOCCOCCOCCCN*; NH(4-picolyl) = c1cc(CN*)ccn1; PEG4 = NCCOCCOCCOCCOCCC(=O)O; Nle = CCCC[C@H](N)C(=O)O; NHiBu = CC(C)CN*

The series is described as follows: Pharmacokinetics in rats after intravenous bolus injection (systemic clearance). The series is classed as in vivo. Conditions: rat, plasma, 0.2 mg FB/kg, adult male Sprague-Dawley rats, i.v. bolus, dose 0.20 mg FB/kg, read-out: CL (ml/kg/min) Average. The essentials:
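Adult male Sprague-Dawley rats (3-4, doubly cannulated) given IV jugular bolus at 0.1-1.0 mg/kg; serial carotid blood to K2EDTA plasma, LC/MS/MS quantitation. CL = dose/kg divided by AUC∞ (noncompartmental, trapezoid); mean ± SD.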
Consider `CCCC[C@H](NC(=O)[C@H](CCC(=O)O)NC(=O)[C@H](CC(=O)O)NC(=O)[C@H](CO)NC(=O)[C@H](Cc1ccccc1)NC(=O)[C@H](CO)NC(=O)CNC(=O)[C@H](CC(=O)O)NC(=O)CNC(=O)[C@@H](N)Cc1cnc[nH]1)C(=O)N[C@H](Cc1ccccc1)C(=O)N[C@H](C(=O)N[C@H](C(=O)N[C@@H](CC(C)C)C(=O)N[C@@H](CC(=O)O)C(=O)N[C@@H](CC(C)C)C(=O)N[C@@H](CC(C)C)C(=O)N[C@@H](C)C(=O)N[C@@H](C)C(=O)N[C@@H](CCCNC(=N)N)C(=O)N[C@@H](CC(=O)O)C(=O)N[C@@H](Cc1ccccc1)C(=O)N[C@H](C(=O)N[C@@H](CC(N)=O)C(=O)N[C@@H](Cc1c[nH]c2ccccc12)C(=O)N[C@@H](CC(C)C)C(=O)N[C@H](C(=O)N[C@@H](CCC(N)=O)C(=O)N[C@H](C(=O)N[C@@H](CCCCN)C(=O)N[C@H](C(=O)N[C@H](C(=O)N[C@@H](CC(=O)O)C(=O)NCC)[C@@H](C)O)[C@@H](C)CC)[C@@H](C)O)[C@@H](C)CC)[C@@H](C)CC)[C@@H](C)CC)[C@@H](C)O` [Compound 53, [Gly2,Nle10,D-Phe11,Leu16] hGLP-2(1-33)-NHEt] (H-HGDGSFSDE[Nle][dF]TILDLLAARDFINWLIQTKITD-NHEt), for which the clearance was determined as 0.19 mL/kg/min.
Turning to `CCCC[C@H](NC(=O)[C@H](CCC(=O)O)NC(=O)[C@H](CC(=O)O)NC(=O)[C@H](CO)NC(=O)[C@H](Cc1ccccc1)NC(=O)[C@H](CO)NC(=O)CNC(=O)[C@H](CC(=O)O)NC(=O)CNC(=O)[C@@H](N)Cc1c[nH]cn1)C(=O)N[C@H](Cc1ccccc1)C(=O)N[C@H](C(=O)N[C@H](C(=O)N[C@@H](CC(C)C)C(=O)N[C@@H](CC(=O)O)C(=O)N[C@@H](CC(C)C)C(=O)N[C@@H](CC(C)C)C(=O)N[C@@H](C)C(=O)N[C@@H](C)C(=O)N[C@@H](CCCNC(=N)N)C(=O)N[C@@H](CC(=O)O)C(=O)N[C@@H](Cc1ccccc1)C(=O)N[C@H](C(=O)N[C@@H](CC(N)=O)C(=O)N[C@@H](Cc1c[nH]c2ccccc12)C(=O)N[C@@H](CC(C)C)C(=O)N[C@H](C(=O)N[C@@H](CCC(N)=O)C(=O)N[C@H](C(=O)N[C@@H](CCCCN)C(=O)N[C@H](C(=O)N[C@H](C(=O)N[C@@H](CC(=O)O)C(=O)NCc1ccncc1)[C@@H](C)O)[C@@H](C)CC)[C@@H](C)O)[C@@H](C)CC)[C@@H](C)CC)[C@@H](C)CC)[C@@H](C)O` [Compound 54, [Gly2,Nle10,D-Phe11,Leu16] hGLP-2(1-33)-NH-4-Pic] (H-HGDGSFSDE[Nle][dF]TILDLLAARDFINWLIQTKITD-{NH(4-picolyl)}), the clearance worked out at 0.27 mL/kg/min.
Regarding `CCCC[C@H](NC(=O)[C@H](CCC(=O)O)NC(=O)[C@H](CC(=O)O)NC(=O)[C@H](CO)NC(=O)[C@H](Cc1ccccc1)NC(=O)[C@H](CO)NC(=O)CNC(=O)[C@H](CC(=O)O)NC(=O)CNC(=O)[C@@H](N)Cc1cnc[nH]1)C(=O)N[C@H](Cc1ccccc1)C(=O)N[C@H](C(=O)N[C@H](C(=O)N[C@@H](CC(C)C)C(=O)N[C@@H](CC(=O)O)C(=O)N[C@@H](CC(C)C)C(=O)N[C@@H](CC(C)C)C(=O)N[C@@H](C)C(=O)N[C@@H](C)C(=O)N[C@@H](CCCNC(=N)N)C(=O)N[C@@H](CC(=O)O)C(=O)N[C@@H](Cc1ccccc1)C(=O)N[C@H](C(=O)N[C@@H](CC(N)=O)C(=O)N[C@@H](Cc1c[nH]c2ccccc12)C(=O)N[C@@H](CC(C)C)C(=O)N[C@H](C(=O)N[C@@H](CCC(N)=O)C(=O)N[C@H](C(=O)N[C@@H](CCCCN)C(=O)N[C@H](C(=O)N[C@H](C(=O)N[C@@H](CC(=O)O)C(=O)NCCOCCOCCOCCOCCC(N)=O)[C@@H](C)O)[C@@H](C)CC)[C@@H](C)O)[C@@H](C)CC)[C@@H](C)CC)[C@@H](C)CC)[C@@H](C)O` [Compound 55, [Gly2,Nle10,D-Phe11,Leu16] hGLP-2(1-33)-NH—((CH2)2O)4—(CH2)2—C(O)—NH2] (H-HGDGSFSDE[Nle][dF]TILDLLAARDFINWLIQTKITD[PEG4]-NH2), the clearance is 0.23 mL/kg/min.
With `CCCC[C@H](NC(=O)[C@H](CCC(=O)O)NC(=O)[C@H](CC(=O)O)NC(=O)[C@H](CO)NC(=O)[C@H](Cc1ccccc1)NC(=O)[C@H](CO)NC(=O)CNC(=O)[C@H](CC(=O)O)NC(=O)CNC(=O)[C@@H](N)Cc1c[nH]cn1)C(=O)N[C@H](Cc1ccccc1)C(=O)N[C@H](C(=O)N[C@H](C(=O)N[C@@H](CC(C)C)C(=O)N[C@@H](CC(=O)O)C(=O)N[C@@H](CC(C)C)C(=O)N[C@@H](CC(C)C)C(=O)N[C@@H](C)C(=O)N[C@@H](C)C(=O)N[C@@H](CCCNC(=N)N)C(=O)N[C@@H](CC(=O)O)C(=O)N[C@@H](Cc1ccccc1)C(=O)N[C@H](C(=O)N[C@@H](CC(N)=O)C(=O)N[C@@H](Cc1c[nH]c2ccccc12)C(=O)N[C@@H](CC(C)C)C(=O)N[C@H](C(=O)N[C@@H](CCC(N)=O)C(=O)N[C@H](C(=O)N[C@@H](CCCCN)C(=O)N[C@H](C(=O)N[C@H](C(=O)N[C@@H](CC(=O)O)C(=O)NCCCOCCOCCOCCCNC(=O)COCC(N)=O)[C@@H](C)O)[C@@H](C)CC)[C@@H](C)O)[C@@H](C)CC)[C@@H](C)CC)[C@@H](C)CC)[C@@H](C)O` [Compound 56, [Gly2,Nle10,D-Phe11,Leu16] hGLP-2(1-33)-NH—CH2—((CH2)2O)3—(CH2)3—NHC(O)—CH2—O—CH2—C(O)—NH2] (H-HGDGSFSDE[Nle][dF]TILDLLAARDFINWLIQTKITD-X2), the clearance was 0.28 mL/kg/min.
`CCCC[C@H](NC(=O)[C@H](CCC(=O)O)NC(=O)[C@H](CC(=O)O)NC(=O)[C@H](CO)NC(=O)[C@H](Cc1ccccc1)NC(=O)[C@H](CO)NC(=O)CNC(=O)[C@H](CC(=O)O)NC(=O)CNC(=O)[C@@H](N)Cc1c[nH]cn1)C(=O)N[C@H](Cc1ccccc1)C(=O)N[C@H](C(=O)N[C@H](C(=O)N[C@@H](CC(C)C)C(=O)N[C@@H](CC(=O)O)C(=O)N[C@@H](CC(C)C)C(=O)N[C@@H](CC(C)C)C(=O)N[C@@H](C)C(=O)N[C@@H](C)C(=O)N[C@@H](CCCNC(=N)N)C(=O)N[C@@H](CC(=O)O)C(=O)N[C@@H](Cc1ccccc1)C(=O)N[C@H](C(=O)N[C@@H](CC(N)=O)C(=O)N[C@@H](Cc1c[nH]c2ccccc12)C(=O)N[C@@H](CC(C)C)C(=O)N[C@H](C(=O)N[C@@H](CCC(N)=O)C(=O)N[C@H](C(=O)N[C@@H](CCCCN)C(=O)N[C@H](C(=O)N[C@H](C(=O)N[C@@H](CC(=O)O)C(=O)NCC(C)C)[C@@H](C)O)[C@@H](C)CC)[C@@H](C)O)[C@@H](C)CC)[C@@H](C)CC)[C@@H](C)CC)[C@@H](C)O` [Compound 57, [Gly2,Nle10,D-Phe11,Leu16] hGLP-2(1-33)-NH-isobutyl] (H-HGDGSFSDE[Nle][dF]TILDLLAARDFINWLIQTKITD-NHiBu): the clearance is 0.17 mL/kg/min.
